Key:
Format in all cases: functional
[1] = test system: Encephalomyocarditis virus; experiment: In vitro antiviral activity against Encephalomyocarditis virus(EMCV) […], at the concentration 1000-1 ug/ml.
[2] = test system: Encephalomyocarditis virus; experiment: In vitro antiviral activity against Encephalomyocarditis virus(EMCV) […], at the concentration 7.8 ug/ml.
Mus musculus = experiment: In vivo antiviral activity against Encephalomyocarditis virus(EMCV) in mice, at the concentration 0.25 mg/mouse
[3] = test system: Encephalomyocarditis virus; experiment: In vitro antiviral activity against Encephalomyocarditis virus(EMCV) […], at the concentration 15.6 ug/ml.

Compound	Protection [1]	Protection (Mus musculus)	other results
Cc1cc(NNC(=O)[C@@H]2O[C@H]2c2ccncc2)nc2ccccc12	0%		
Cc1cc(NNC(=O)[C@@H]2O[C@H]2c2cccc([N+](=O)[O-])c2)nc2ccccc12	0%		
Cc1cc(NNC(=O)[C@@H]2O[C@H]2c2ccc3c(c2)OCO3)nc2ccccc12		10%	Protection [2]: 75%
COc1ccc([C@@H]2O[C@H]2C(=O)NNc2cc(C)c3ccccc3n2)cc1		25%	Protection [3]: 75%
Cc1cc(NNC(=O)CCl)nc2ccccc12	0%		
Cc1cc(NNC(=O)[C@@H]2O[C@H]2c2ccc(Cl)cc2)nc2ccccc12	0%		
